Results published in patent US9884868B2, “TGF-beta inhibitors” (Rigel Pharmaceuticals, Inc., priority 2015, dated 2018).
Counter-ions that a name gives are not always drawn.

target: HIS-TGF-βR1 T204D (Homo sapiens (Human), UniProt P36897, T204D); test: HTRF probe displacement assay with HIS-TGF-βR1 T204D; conditions: read-out: TGFbr1 IC50; HTRF probe displacement, 1 nM HIS-TGF-βR1 T204D, 1 hour at room temperature
Sequence (P36897 34-503 T204D): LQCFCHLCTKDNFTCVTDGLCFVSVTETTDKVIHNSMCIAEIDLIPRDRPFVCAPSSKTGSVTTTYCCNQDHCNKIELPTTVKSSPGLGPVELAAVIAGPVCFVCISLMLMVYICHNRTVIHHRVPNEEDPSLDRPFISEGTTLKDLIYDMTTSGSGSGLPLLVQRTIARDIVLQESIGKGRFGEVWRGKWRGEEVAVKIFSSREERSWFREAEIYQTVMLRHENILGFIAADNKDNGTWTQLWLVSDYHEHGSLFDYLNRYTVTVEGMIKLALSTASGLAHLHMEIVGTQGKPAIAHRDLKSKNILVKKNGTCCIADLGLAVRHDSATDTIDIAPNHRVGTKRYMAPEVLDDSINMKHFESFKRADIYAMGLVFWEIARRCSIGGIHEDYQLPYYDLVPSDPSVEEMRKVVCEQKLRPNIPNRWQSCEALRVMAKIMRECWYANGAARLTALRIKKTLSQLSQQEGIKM

Row | SMILES | IC50 [nM]
1 | N#Cc1cnc2ccc(-c3c(-c4ccc(F)cc4)nc4n3CCC4)cn12 [283B′, 6-(2-(4-fluorophenyl)-6,7-dihydro-5H-pyrrolo[1,2-a]imidazol-3-yl)imidazo[1,2-a]pyridine-3-carbonitrile] | 13.8
2 | N#Cc1cnc2ccc(-c3c(-c4ccc(F)cc4)ncn3[C@H]3C[C@@H](O)C3)nn12 [Example 2′] | 2.3
3 | CC[C@@H](CO)n1cnc(-c2ccc(F)cc2)c1-c1ccc2ncc(C#N)n2n1 [Example 6′, (S)-6-(4-(4-fluorophenyl)-1-(1-hydroxybutan-2-yl)-1H-imidazol-5-yl)imidazo[1,2-b]pyridazine-3-carbonitrile] | 5
4 | N#Cc1cnc2ccc(-c3c(-c4ccc(F)c(Cl)c4)ncn3CCO)nn12 [Example 32′, 6-(4-(3-chloro-4-fluorophenyl)-1-(2-hydroxyethyl)-1H-imidazol-5-yl)imidazo[1,2-b]pyridazine-3-carbonitrile] | 1.8
5 | N#Cc1cnc2ccc(-c3c(-c4ccc(F)c(Cl)c4)ncn3[C@H]3C[C@@H](O)C3)nn12 [Example 39′, 6-(4-(3-chloro-4-fluorophenyl)-1-((cis)-3-hydroxycyclobutyl)-1H-imidazol-5-yl)imidazo[1,2-b]pyridazine-3-carbonitrile] | 0.9
6 | CC[C@@H](CF)n1cnc(-c2ccc(F)cc2)c1-c1ccc2ncc(C#N)n2n1 [Example 103′, (S)-6-(1-(1-fluorobutan-2-yl)-4-(4-fluorophenyl)-1H-imidazol-5-yl)imidazo[1,2-b]pyridazine-3-carbonitrile] | 1.8
7 | N#Cc1cnc2ccc(-c3c(-c4ccc(F)c(Cl)c4)ncn3C3CC(F)C3)nn12 (stereo not shown) [Example 104′, 6-(4-(3-chloro-4-fluorophenyl)-1-(3-fluorocyclobutyl)-1H-imidazol-5-yl)imidazo[1,2-b]pyridazine-3-carbonitrile] | 0.5
8 | NC(=O)c1cnc2ccc(-c3c(-c4ccc(F)cc4)ncn3[C@H]3C[C@@H](O)C3)nn12 [Example 123′] | 4.2
9 | N#CC1(n2cnc(-c3ccc(F)cc3)c2-c2ccc3nccn3n2)CC1 [Example 188′, 1-(4-(4-fluorophenyl)-5-(imidazo[1,2-b]pyridazin-6-yl)-1H-imidazol-1-yl)cyclopropanecarbonitrile] | 2
10 | Fc1ccc(-c2ncn(C3(C(F)F)CC3)c2-c2ccc3nccn3n2)cc1 [Example 189′, 6-(1-(1-(difluoromethyl)cyclopropyl)-4-(4-fluorophenyl)-1H-imidazol-5-yl)imidazo[1,2-b]pyridazine] | 1.6
11 | CNCc1cnc2ccc(-c3c(-c4ccc(F)cc4)ncn3CC(F)F)nn12 [Example 196′] | 23.8
12 | N=C(NO)c1cnc2ccc(-c3c(-c4ccc(F)cc4)ncn3CC(F)F)nn12 [Example 203′, 6-(1-(2,2-difluoroethyl)-4-(4-fluorophenyl)-1H-imidazol-5-yl)-N-hydroxyimidazo[1,2-b]pyridazine-3-carboximidamide] | 1.1
13 | CC(C)(O)c1cnc2ccc(-c3c(-c4ccc(F)cc4)ncn3CC(F)F)nn12 [Example 204′, 2-(6-(1-(2,2-difluoroethyl)-4-(4-fluorophenyl)-1H-imidazol-5-yl)imidazo[1,2-b]pyridazin-3-yl)propan-2-ol] | 1.2
14 | NNC(=O)c1cnc2ccc(-c3c(-c4ccc(F)cc4)ncn3CC(F)F)nn12 [Example 205′, 6-(1-(2,2-difluoroethyl)-4-(4-fluorophenyl)-1H-imidazol-5-yl)imidazo[1,2-b]pyridazine-3-carbohydrazide] | 1.8
15 | OCc1cnc2ccc(-c3c(-c4ccc(F)cc4)ncn3CC(F)F)nn12 [Example 210′, (6-(1-(2,2-difluoroethyl)-4-(4-fluorophenyl)-1H-imidazol-5-yl)imidazo[1,2-b]pyridazin-3-yl)methanol] | 2.2
16 | CC(=O)Nc1cnc2ccc(-c3c(-c4ccc(F)cc4)ncn3CC(F)F)nn12 [Example 212′, N-(6-(1-(2,2-difluoroethyl)-4-(4-fluorophenyl)-1H-imidazol-5-yl)imidazo[1,2-b]pyridazin-3-yl)acetamide] | 9.3
17 | CC(O)c1cnc2ccc(-c3c(-c4ccc(F)cc4)ncn3CC(F)F)nn12 (stereo not shown) [Example 214′, 1-(6-(1-(2,2-difluoroethyl)-4-(4-fluorophenyl)-1H-imidazol-5-yl)imidazo[1,2-b]pyridazin-3-yl)ethanol] | 1.1
18 | Fc1ccc(-c2ncn(CC(F)F)c2-c2ccc3ncc(C(F)F)n3n2)cc1 [Example 215′, 6-(1-(2,2-difluoroethyl)-4-(4-fluorophenyl)-1H-imidazol-5-yl)-3-(difluoromethyl)imidazo[1,2-b]pyridazine] | 0.8
19 | Fc1ccc(-c2ncn(CC(F)F)c2-c2ccc3ncc(-c4cnco4)n3n2)cc1 [Example 216′, 5-(6-(1-(2,2-difluoroethyl)-4-(4-fluorophenyl)-1H-imidazol-5-yl)imidazo[1,2-b]pyridazin-3-yl)oxazole] | 0.9
20 | OCCc1cnc2ccc(-c3c(-c4ccc(F)cc4)ncn3CC(F)F)nn12 [Example 217′, 2-(6-(1-(2,2-difluoroethyl)-4-(4-fluorophenyl)-1H-imidazol-5-yl)imidazo[1,2-b]pyridazin-3-yl)ethanol] | 3.2
21 | N#Cc1cccc(-c2ncn(CC(F)F)c2-c2ccc3ncc(C#N)n3n2)c1 [Example 236] | 2.1
22 | N#Cc1cnc2ccc(-c3c(-c4ccc(F)cc4)ncn3C3(C#N)CC3)nn12 [Example 267′, 6-(1-(1-cyanocyclopropyl)-4-(4-fluorophenyl)-1H-imidazol-5-yl)imidazo[1,2-b]pyridazine-3-carbonitrile, TFA] | 0.3
23 | CC(C)(C)Cn1cnc(-c2ccc(F)cc2)c1-c1ccc2ncc(C#N)n2n1 [Example 270′, 6-(4-(4-fluorophenyl)-1-neopentyl-1H-imidazol-5-yl)imidazo[1,2-b]pyridazine-3-carbonitrile] | 99.2
24 | NC(=O)c1cnc2ccc(-c3c(-c4ccc(F)cc4)nc4n3CCC4)cn12 [Example 283′, 6-(2-(4-fluorophenyl)-6,7-dihydro-5H-pyrrolo[1,2-a]imidazol-3-yl)imidazo[1,2-a]pyridine-3-carboxamide] | 0.9
25 | Fc1ccc(-c2ncn(CC(F)F)c2-c2ccc3ncc(C4CC4)n3c2)cc1 [Example 285′, 3-cyclopropyl-6-(1-(2,2-difluoroethyl)-4-(4-fluorophenyl)-1H-imidazol-5-yl)imidazo[1,2-a]pyridine] | 38.8
26 | NC(=O)c1cnc2ccc(-c3c(-c4ccc(F)cc4)nc4n3CCNC4)cn12 [Example 290′, 6-(2-(4-fluorophenyl)-5,6,7,8-tetrahydroimidazo[1,2-60]pyrazin-3-yl)imidazo[1,2-a]pyridine-3-carboxamide] | 21.6

Continued, values first:

Row | IC50 [nM] | SMILES
27 | 92.6 | OCc1cnc2ccc(-c3c(-c4ccc(F)cc4)ncn3CC(F)F)cn12 [274D′, (6-(1-(2,2-difluoroethyl)-4-(4-fluorophenyl)-1H-imidazol-5-yl)imidazo[1,2-a]pyridin-3-yl)methanol]
28 | 1.2 | Nc1cnc2ccc(-c3c(-c4ccc(F)cc4)ncn3CC(F)F)cn12 [284D′, 6-(1-(2,2-difluoroethyl)-4-(4-fluorophenyl)-1H-imidazol-5-yl)imidazo[1,2-a]pyridin-3-amine]
29 | 63.2 | Cn1cnc(-c2ccc(F)c(F)c2)c1-c1ccc2cn[nH]c2c1 [Compound 65, 6-(4-(3,4-Difluorophenyl)-1-methyl-1H-imidazol-5-yl)-1H-indazole]
30 | 62.7 | Fc1ccc(-c2ncn(CC(F)F)c2-c2ccc3nccn3c2)cc1 [Example 218′, 6-(1-(2,2-difluoroethyl)-4-(4-fluorophenyl)-1H-imidazol-5-yl)imidazo[1,2-a]pyridine]
31 | 66.7 | N#Cc1cnc2ccc(-c3c(-c4ccc(F)cc4)ncn3CC(F)F)cn12 [Example 224′, 6-(1-(2,2-difluoroethyl)-4-(4-fluorophenyl)-1H-imidazol-5-yl)imidazo[1,2-a]pyridine-3-carbonitrile]
32 | 172 | Cc1nc(-c2ccc(F)cc2)c(-c2ccc3nccn3c2)n1CC(F)F [Example 271′, 6-(1-(2,2-difluoroethyl)-4-(4-fluorophenyl)-2-methyl-1H-imidazol-5-yl)imidazo[1,2-a]pyridine]
33 | 10.4 | Cc1nc(-c2ccc(F)cc2)c(-c2ccc3ncc(C(N)=O)n3c2)n1CC(F)F [Example 272′, 6-(1-(2,2-difluoroethyl)-4-(4-fluorophenyl)-2-methyl-1H-imidazol-5-yl)imidazo[1,2-a]pyridine-3-carboxamide]
34 | 29.6 | Cc1nc(-c2ccc(F)cc2)c(-c2ccc3[nH]ncc3c2)n1CC(F)F [Example 273′, 5-(1-(2,2-difluoroethyl)-4-(4-fluorophenyl)-2-methyl-1H-imidazol-5-yl)-1H-indazole]
35 | 137 | CC(O)c1cnc2ccc(-c3c(-c4ccc(F)cc4)ncn3CC(F)F)cn12 (stereo not shown) [Example 274′, 1-(6-(1-(2,2-difluoroethyl)-4-(4-fluorophenyl)-1H-imidazol-5-yl)imidazo[1,2-a]pyridin-3-yl)ethanol]
36 | 20.9 | Fc1ccc(-c2ncn(CC(F)F)c2-c2ccc3ncc(C(F)F)n3c2)cc1 [Example 277′, 6-(1-(2,2-difluoroethyl)-4-(4-fluorophenyl)-1H-imidazol-5-yl)-3-(difluoromethyl)imidazo [1,2-a]pyridine]
37 | 184 | CC(C)(O)c1cnc2ccc(-c3c(-c4ccc(F)cc4)ncn3CC(F)F)cn12 [Example 278′]
38 | 522 | Fc1ccc(-c2ncn(CC(F)F)c2-c2ccc3nncn3c2)cc1 [Example 281′, 6-(1-(2,2-difluoroethyl)-4-(4-fluorophenyl)-1H-imidazol-5-yl)-[1,2,4]triazolo[4,3-a]pyridine]
39 | 12.9 | Fc1ccc(-c2ncn(CC(F)F)c2-c2ccn3ncnc3c2)cc1 [Example 282′, 7-(1-(2,2-difluoroethyl)-4-(4-fluorophenyl)-1H-imidazol-5-yl)-[1,2,4]triazolo[1,5-a]pyridine]
40 | 56.7 | Fc1ccc(-c2ncn(CC(F)F)c2-c2ccc3ncc(F)n3c2)cc1 [Example 288′, 6-(1-(2,2-difluoroethyl)-4-(4-fluorophenyl)-1H-imidazol-5-yl)-3-fluoroimidazo[1,2-a]pyridine]
